Patent US4229435A, “Preparation of blood fraction” (priority 1978, dated 1980)

Columns and labels:
F II = target: T1, F II (Homo sapiens, UniProt P00734); assay: Coagulation factor II activity in plasma after reducing agent + iodoacetic acid; format: biochemical; settings: 5 min 37° C., then iodoacetic acid
T1 construct: from tissue; host or cells: human citrated blood plasma
Protocol: (§1) Human blood with anti-coagulating agent (9 parts blood+1 part 3.8% trisodium citrate) is centrifuged and the following tests with plasma were carried out:
(§2) The plasma is divided into 8 ml portions, which are preheated at 37° C. for 5 min. DTT is added in different concentrations, see table 1 below, and is incubated for 5 min. at 37° C. Then iodoacetic acid, 3 mol per mol DTT, is added, and incubation takes place for 15 min. at 37° C. The plasma samples are distributed in portions of about 0.2 ml and are immediately frozen at -70° C. Testing of different coagulation factors is made in known manner.
(§3) The plasma is divided into 8 ml portions, which are preheated at 37° C. for 5 min. DTE is added in different concentrations (see table 2), and is incubated for 5 minutes at 37° C. Then, iodoacetic acid (3 mol per mol DTE) is added and incubation is carried out for 15 minutes at 37° C. The plasma samples are distributed in portions of about 0.2 ml and are immediately frozen at -70° C. Testing of different coagulation factors is made in a manner known per se.
as §3, with “minutes. Lipoic acid” for “min. DTE”, “3),” for “2),”, “lipoic acid)” for “DTE)”
as §3, with “minutes. Mercaptoethanol” for “min. DTE”, “4),” for “2),”, “mercaptoethanol)” for “DTE)”
as §3, with “minutes. Potassium borohydride” for “min. DTE”, “5,” for “2),”, “potassium borohydride)” for “DTE)”

F VIII = target: T2, F VIII (Homo sapiens, UniProt P00451); assay: Coagulation factor VIII activity in plasma after reducing agent + iodoacetic acid; format: biochemical; settings: 5 min 37° C., then iodoacetic acid
T2 construct: from tissue; host or cells: human citrated blood plasma
T2 sequence (P00451 20-1332 limits assumed): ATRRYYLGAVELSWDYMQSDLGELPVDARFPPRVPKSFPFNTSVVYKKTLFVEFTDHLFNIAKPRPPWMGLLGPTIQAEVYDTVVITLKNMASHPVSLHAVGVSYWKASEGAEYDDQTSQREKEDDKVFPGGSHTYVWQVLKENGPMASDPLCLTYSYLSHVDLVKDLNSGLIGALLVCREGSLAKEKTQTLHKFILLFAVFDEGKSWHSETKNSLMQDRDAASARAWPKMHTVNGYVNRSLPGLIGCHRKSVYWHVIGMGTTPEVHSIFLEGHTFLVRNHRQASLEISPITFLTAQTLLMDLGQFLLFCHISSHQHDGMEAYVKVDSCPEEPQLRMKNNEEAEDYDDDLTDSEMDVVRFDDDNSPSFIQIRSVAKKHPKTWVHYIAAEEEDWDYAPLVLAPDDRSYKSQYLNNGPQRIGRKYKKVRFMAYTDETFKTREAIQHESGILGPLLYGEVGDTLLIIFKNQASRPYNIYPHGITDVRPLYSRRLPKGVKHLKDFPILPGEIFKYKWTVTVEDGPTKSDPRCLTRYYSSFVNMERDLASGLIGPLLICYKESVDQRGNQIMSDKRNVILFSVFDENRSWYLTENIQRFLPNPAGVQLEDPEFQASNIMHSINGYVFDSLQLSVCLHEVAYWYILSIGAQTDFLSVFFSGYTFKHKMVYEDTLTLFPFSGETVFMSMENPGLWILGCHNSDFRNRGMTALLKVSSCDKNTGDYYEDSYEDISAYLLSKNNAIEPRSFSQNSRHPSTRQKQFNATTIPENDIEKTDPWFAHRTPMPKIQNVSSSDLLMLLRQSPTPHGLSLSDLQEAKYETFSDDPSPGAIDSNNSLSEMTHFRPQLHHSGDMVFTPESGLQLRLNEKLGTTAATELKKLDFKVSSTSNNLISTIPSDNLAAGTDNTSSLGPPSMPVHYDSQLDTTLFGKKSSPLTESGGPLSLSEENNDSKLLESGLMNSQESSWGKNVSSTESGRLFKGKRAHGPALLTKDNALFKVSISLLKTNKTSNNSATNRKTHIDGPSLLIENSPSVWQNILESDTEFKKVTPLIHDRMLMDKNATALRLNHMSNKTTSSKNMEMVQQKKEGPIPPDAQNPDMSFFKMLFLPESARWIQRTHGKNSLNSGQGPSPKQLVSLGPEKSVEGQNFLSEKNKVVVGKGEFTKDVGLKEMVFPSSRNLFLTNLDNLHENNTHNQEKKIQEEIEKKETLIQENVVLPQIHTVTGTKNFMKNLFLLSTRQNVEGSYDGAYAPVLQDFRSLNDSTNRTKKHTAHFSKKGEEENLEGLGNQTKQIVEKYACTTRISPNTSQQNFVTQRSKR
T2 sequence (P00451 1668-2351 limits assumed): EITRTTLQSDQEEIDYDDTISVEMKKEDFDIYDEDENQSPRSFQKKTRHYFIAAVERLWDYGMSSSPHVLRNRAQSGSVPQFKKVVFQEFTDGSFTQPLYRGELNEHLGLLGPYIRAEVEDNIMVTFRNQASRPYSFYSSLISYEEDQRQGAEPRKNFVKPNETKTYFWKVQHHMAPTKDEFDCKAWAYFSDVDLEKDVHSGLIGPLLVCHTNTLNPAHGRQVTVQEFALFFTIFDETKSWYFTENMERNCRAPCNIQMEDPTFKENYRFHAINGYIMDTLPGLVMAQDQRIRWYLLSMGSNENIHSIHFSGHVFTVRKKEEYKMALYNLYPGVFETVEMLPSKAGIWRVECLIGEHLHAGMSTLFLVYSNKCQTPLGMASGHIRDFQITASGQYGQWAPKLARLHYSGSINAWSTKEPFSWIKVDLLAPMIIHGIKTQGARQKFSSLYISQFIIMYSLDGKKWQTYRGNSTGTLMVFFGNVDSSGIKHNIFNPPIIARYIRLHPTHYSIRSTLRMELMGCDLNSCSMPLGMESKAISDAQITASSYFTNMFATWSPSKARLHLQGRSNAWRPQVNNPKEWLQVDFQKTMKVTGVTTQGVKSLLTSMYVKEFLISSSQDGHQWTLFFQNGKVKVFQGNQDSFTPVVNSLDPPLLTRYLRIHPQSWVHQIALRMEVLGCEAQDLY
Protocol: as §1, §2, §3
as §3, with “minutes. Lipoic acid” for “min. DTE”, “3),” for “2),”, “lipoic acid)” for “DTE)”
as §3, with “minutes. Mercaptoethanol” for “min. DTE”, “4),” for “2),”, “mercaptoethanol)” for “DTE)”
as §3, with “minutes. Potassium borohydride” for “min. DTE”, “5,” for “2),”, “potassium borohydride)” for “DTE)”

[1] = plasma + 0.14 mg reducing agent
[2] = plasma + 0.28 mg reducing agent
[3] = human, 0.1 mg reducing agent/ml plasma (sample C)
[4] = human, 0.6 mg reducing agent/ml plasma
[5] = human, Table 1 sample D, 0.1 mg DTT/ml plasma

| Coagulation factor F II (F II; [1]) | Coagulation factor F II (F II; [2]) | Coagulation factor F VIII (F VIII; [1]) | Coagulation factor F VIII (F VIII; [2]) | activity at 100 µg/mL (F II; [3]) | activity at 600 µg/mL (F II; [4]) | activity at 100 µg/mL (F II; [5]) | Coagulation factor F II (F II; plasma + 0.4 mg reducing agent) | activity at 100 µg/mL (F VIII; [3]) | activity at 600 µg/mL (F VIII; [4]) | activity at 100 µg/mL (F VIII; [5]) | Coagulation factor F VIII (F VIII; plasma + 0.4 mg reducing agent) | Coagulation factor F II (F II; plasma + 0.2 mg reducing agent) | Coagulation factor F VIII (F VIII; plasma + 0.2 mg reducing agent) | SMILES |
| --- | --- | --- | --- | --- | --- | --- | --- | --- | --- | --- | --- | --- | --- | --- |
| 92 % of control | 96 % of control | 122 % of control | 105 % of control |  |  |  |  |  |  |  |  |  |  | [BH4-].[K+] [KBH4, potassium borohydride] |
|  |  |  |  | 101% | 33% | 69% | 41 % of control | 107% | 27% | 86% | 52 % of control |  |  | O[C@H](CS)[C@H](O)CS [DTT, dithiothreitol] |
|  |  |  |  |  |  |  | 74 % of control |  |  |  | 85 % of control | 89 % of control | 98 % of control | OCCS [mercaptoethanol] |
|  |  |  |  | 100% |  |  | 103 % of control | 111% |  |  | 111 % of control | 103 % of control | 98 % of control | O=C(O)CCCCC1CCSS1 (stereo not shown) [lipoic acid] |
|  |  |  |  | 90% |  |  | 35 % of control | 108% |  |  | 93 % of control | 66 % of control | 116 % of control | O[C@H](CS)[C@@H](O)CS [DTE, dithioerythritol] |
